The values below come from article PMC11062922 (Nature Chemical Biology, 2023).

Assay [1] has as its system CSF1R, FLT3, KIT, PDGFRB, PDGFRA. Set-up: method as in chemicalprobes.org. To be noted: ref chemicalprobes.org, cited from earlier work.
For assay [2] the test system is unchanged. Also noted: method as in chemicalprobes.org. To be noted: 2nd of 4 values listed for 5 targets; ref chemicalprobes.org; read-out: Potency value in cells (IC50); cited from earlier work.
In assay [3] the target is T1, ERN1 (Homo sapiens, UniProt O75460).
T1 construct: endogenous in cells
Set-up: method as in chemicalprobes.org. Particulars: truncated human IRE1 alpha WT (AA 469-977); ref chemicalprobes.org; cited from earlier work.

Assay [4] has as its system XBP1 splicing in cells. Also noted: method as in chemicalprobes.org. To be noted: ref chemicalprobes.org; read-out: Potency value in cells (IC50); cited from earlier work.
Assay [5] deals with T2, CSNK2A1 (CK2) (Homo sapiens, UniProt P68400).
T2 construct: endogenous in cells
Put plainly: Kinobeads two-dose competition binding: CK2 (CSNK2A1).

Assay [6] concerns the target T3, CK2alpha1 (CSNK2A1) (Homo sapiens, UniProt P68400).
T3 construct: purchased ProQinase
As to the kind of experiment: Recombinant kinase activity assay (ProQinase, FlashPlate radiometric): CK2alpha1. Particulars: Enzyme CK2alpha1; Highest Assay Concentration 1.00E-06 M; read-out: IC50. Type of assay: biochemical. On the procedure:
(§1) Kinase activity assays were performed by ProQinase. Dose-dependent activity inhibition of CDK1/cyclinB, CK2alpha1 and CK2alpha2 were measured using a FlashPlateTM-based radiometric assay at KM (ATP) of the respective kinase.

Assay [7] has as its target CSNK2A2 (Homo sapiens, UniProt P19784). As to the kind of experiment: Kinobeads two-dose competition binding: CSNK2A2. Set-up: to maximize the representation of endogenous proteins; endogenous in cells. Particulars: Kinobeads two-dose screen (binding); read-out: Kdapp CSNK2A2. The source says: Briefly, Kinobeads comprise seven broad-spectrum small molecule kinase inhibitors immobilized on Sepharose beads. […]. Compounds of interest are set to compete for target protein binding with Kinobeads in the lysate and the amount of a given protein bound to Kinobeads in the presence of a compound can be quantified relative to a dimethylsulfoxide (DMSO) vehicle control by label-free mass spectrometry. This assay measures the physical interaction of a compound with thousands of endogenous proteins in parallel and, when systematically increasing the concentration of competitor, enables the calculation of an apparent interaction constant ( Kdapp ) for each compound and protein.
Kinobeads pulldown experiments were performed as described previously[13],[14],[17] with minor modification. […] The protein concentration was adjusted to 5 mg ml^−1. Kinase inhibitors were spiked into 0.5 ml of cell lysate at final concentrations of 100 and 1,000 nM (or DMSO, 0.3, 1, 3, 10, 30, 100, 300 and 1,000 nM for full dose experiments). […] Lysates were incubated for 45 min at 4 °C. Subsequently, lysates were incubated with Kinobeads ε (17.5 µl of settled beads) for 30 min at 4 °C. To assess the degree of protein depletion from the lysates by Kinobeads, the flow through of the DMSO control was recovered for a pulldown of pulldown experiment where the lysate was incubated a second time with fresh Kinobeads. Beads were washed in three steps with buffer containing 0.4%, 0.2% and no IGEPAL. Bound proteins were reduced with 50 mM DTT in 8 M Urea, 40 mM Tris-HCl pH 7.4 for 30 min at room temperature. After alkylation with 55 mM chloroacetamide, the urea concentration was reduced to 1–2 M and proteins were digested with trypsin. Acidified peptides were desalted and concentrated using SepPak tC18 µEluation plates (Waters). Samples were frozen, dried by vacuum centrifugation and stored at −20 °C.
Each kinase inhibitor was processed together with all DMSO controls of the same plate. Additionally, each search was supplemented with five high quality DMSO controls for consistent peptide identification and protein grouping. The resultant file (proteinGroups.txt) was used for subsequent filtering, normalization, data visualization and target annotation that was automatically performed by a data processing pipeline built in house that used R (including the ‘drc’ and ‘heatmap’ packages). First, reverse hits, potential contaminants and not quantified proteins in the DMSO control samples were discarded. Protein raw and label-free quantification intensities were normalized to the median DMSO control intensity to obtain relative residual binding intensities for each protein group at every inhibitor concentration and standard deviations of the DMSO control intensity were calculated. IC50 values were estimated based on the following equation IC50=I×100−inhibition/inhibition where [I] is the inhibitor concentration that was used for IC50 calculation and ‘inhibition’ the relative residual binding intensity. […]. Estimated Kdapp values were then calculated by multiplying the estimated IC50 values with a protein-dependent correction factor that was limited to a maximum value of one. The correction factor accounts for the depletion of a target protein from the lysate by Kinobeads. The depletion can be measured by the ratio of the amount of protein captured in two consecutive pulldowns of the same DMSO control lysate. In this study, correction factors were determined in separate experiments using the same lysate mixture and the same bead batch. Correction factors were set to the median of all correction factors. Targets of kinase inhibitors were annotated using the previously published random forest classifier. A training data set was annotated manually. […]

In assay [8] the target is T4, CDK1/cyclinB (Homo sapiens, UniProt P06493).
T4 construct: purchased ProQinase
Put plainly: Recombinant kinase activity assay (ProQinase, FlashPlate radiometric): CDK1/cyclinB. The assay is classed as biochemical. Particulars: Enzyme CDK1_CycB1; Highest Assay Concentration 1.00E-06 M. On the procedure: as §1

Assay [9] concerns the target T5, CK2alpha2 (CSNK2A2) (Homo sapiens, UniProt P19784).
T5 construct: purchased ProQinase
As to the kind of experiment: Recombinant kinase activity assay (ProQinase, FlashPlate radiometric): CK2alpha2. Type of assay: biochemical. On the procedure: as §1

Molecules are shown by their SMILES. Where two headings read alike, the source gives them in different places.

A word on the IC50: it is the midpoint of a concentration-inhibition curve. With `CCN1C(C)(C)CC(Oc2ccc(C(=O)Nc3ccc(NC(=O)Nc4cc(C(C)(C)C)on4)cc3)nc2)CC1(C)C` [AC710], the Potency value in assay [1] (1st of 4 values listed for 5 targets) was 0.0005 µM; in assay [1] (2nd of 4 values listed for 5 targets), 0.0006 µM; in assay [1] (3rd of 4 values listed for 5 targets) it was 0.001 µM; in [1] (4th of 4 values listed for 5 targets) it was 0.0013 µM. For the same compound, the IC50 in [2] is 0.002 µM.
`Cc1ccc2c(NS(=O)(=O)c3ccccc3Cl)cccc2c1Oc1ncccc1-c1ccnc(N[C@H]2CCCNC2)n1` [AMG-18]: in assay [3], the Potency value is 0.013 µM. For the same compound, the IC50 in assay [4] was 0.099 µM.
Consider `CONC1=NC(=O)/C(=C/c2ccc3ncccc3c2)S1` [RO4613269-000], for which the potency estimated from few doses in assay [5] (Kinobeads two-dose screen (binding), read-out: Kdapp CK2 (CSNK2A1)) was 0.058 µM; in assay [7], 0.057 µM. The compound further returned a CATDSCK2 in assay [5] (selectivity score from Kinobeads two-dose data) of 0.86. The concentration for half-maximal inhibition (IC50) was 0.116 µM in [6]; more than 1 µM in assay [8]; 0.0653 µM in assay [9] (Enzyme CK2alpha2, Highest Assay Concentration 1.00E-06 M, read-out: IC50); 0.065 µM in assay [9] (recombinant kinase activity assay at KM (ATP), read-out: Activity IC50 CSNK2A2).
